{"source": "paper PMC8199946", "key": {"[1]": {"assay": "macrolactonisation by intramolecular SN2 of carboxylate on C6 sulfonate (tosylate; one brosylate, one chloride) of glucosamine derivative, K2CO3 2 equiv", "settings": "DMF, 10.0 mM, 75.0 °C"}, "[2]": {"assay": "macrolactonisation by intramolecular SN2 of carboxylate on C6 tosylate of GlcNAc derivative, K2CO3 2 equiv", "settings": "MeCN, 6.0 mM, 75.0 °C"}}, "data": [{"smiles": "CC(=O)N[C@H]1[C@H]2OCCCn3cc(nn3)CCCCCCC(=O)OC[C@@H](O2)[C@@H](OC(=O)c2ccccc2)[C@@H]1OC(=O)c1ccccc1", "note": "[12b -> 14b (LM36)]", "values": [{"measurement": "ring closure, isolated yield", "setting": "[1]; from CC(=O)N[C@H]1[C@@H](OCCCn2cc(CCCCCCC(=O)O)nn2)O[C@H](COS(=O)(=O)c2ccc(C)cc2)[C@@H](OC(=O)c2ccccc2)[C@@H]1OC(=O)c1ccccc1, 19-membered ring, 2.0 h", "result": 83, "unit": "%"}]}, {"smiles": "CC(=O)N[C@H]1[C@H]2OCCn3cc(nn3)CCCCCc3cn(nn3)CCC(=O)OC[C@@H](O2)[C@@H](OC(=O)c2ccccc2)[C@@H]1OC(=O)c1ccccc1", "note": "[15b -> 16b (DM25)]", "values": [{"measurement": "ring closure, isolated yield", "setting": "[1]; from CC(=O)N[C@H]1[C@@H](OCCn2cc(CCCCCc3cn(CCC(=O)O)nn3)nn2)O[C@H](COS(=O)(=O)c2ccc(C)cc2)[C@@H](OC(=O)c2ccccc2)[C@@H]1OC(=O)c1ccccc1, 22-membered ring, 2.0 h", "result": 88, "unit": "%"}, {"measurement": "ring closure, isolated yield", "setting": "[2]; from CC(=O)N[C@H]1[C@@H](OCCn2cc(CCCCCc3cn(CCC(=O)O)nn3)nn2)O[C@H](COS(=O)(=O)c2ccc(C)cc2)[C@@H](OC(=O)c2ccccc2)[C@@H]1OC(=O)c1ccccc1, 22-membered ring, 14.0 h", "result": 71, "unit": "%"}]}, {"smiles": "CC(=O)N[C@H]1[C@H]2OCCCn3cc(nn3)CCCCCCCCC(=O)OC[C@@H](O2)[C@@H](OC(=O)c2ccccc2)[C@@H]1OC(=O)c1ccccc1", "note": "[12c -> 14c (LM38)]", "values": [{"measurement": "ring closure, isolated yield", "setting": "[1]; from CC(=O)N[C@H]1[C@@H](OCCCn2cc(CCCCCCCCC(=O)O)nn2)O[C@H](COS(=O)(=O)c2ccc(C)cc2)[C@@H](OC(=O)c2ccccc2)[C@@H]1OC(=O)c1ccccc1, 21-membered ring, 2.0 h", "result": 83, "unit": "%"}]}, {"smiles": "CC(=O)N[C@H]1[C@H]2OCCn3cc(nn3)CCCCCCC(=O)OC[C@@H](O2)[C@@H](OC(=O)c2ccccc2)[C@@H]1OC(=O)c1ccccc1", "note": "[11b -> 13b (LM26)]", "values": [{"measurement": "ring closure, isolated yield", "setting": "[1]; from CC(=O)N[C@H]1[C@@H](OCCn2cc(CCCCCCC(=O)O)nn2)O[C@H](COS(=O)(=O)c2ccc(C)cc2)[C@@H](OC(=O)c2ccccc2)[C@@H]1OC(=O)c1ccccc1, 18-membered ring, 5.0 h", "result": 76, "unit": "%"}]}, {"smiles": "CC(=O)N[C@H]1[C@H]2OCCn3cc(nn3)CCCCCCCCC(=O)OC[C@@H](O2)[C@@H](OC(=O)c2ccccc2)[C@@H]1OC(=O)c1ccccc1", "note": "[8a -> LM28, OBs]", "values": [{"measurement": "ring closure, isolated yield", "setting": "[1]; from CC(=O)N[C@H]1[C@@H](OCCn2cc(CCCCCCCCC(=O)O)nn2)O[C@H](COS(=O)(=O)c2ccc(Br)cc2)[C@@H](OC(=O)c2ccccc2)[C@@H]1OC(=O)c1ccccc1, 20-membered ring, 5.0 h", "result": 72, "unit": "%"}]}, {"smiles": "CC(=O)N[C@H]1[C@H]2OCCn3cc(nn3)CCCCCCCCC(=O)OC[C@@H](O2)[C@@H](OC(=O)c2ccccc2)[C@@H]1OC(=O)c1ccccc1", "note": "[8b -> LM28, Cl]", "values": [{"measurement": "ring closure, isolated yield", "setting": "[1]; from CC(=O)N[C@H]1[C@@H](OCCn2cc(CCCCCCCCC(=O)O)nn2)O[C@H](CCl)[C@@H](OC(=O)c2ccccc2)[C@@H]1OC(=O)c1ccccc1, 20-membered ring, 5.0 h", "result": 67, "unit": "%"}]}, {"smiles": "CC(=O)N[C@H]1[C@H]2OCCn3cc(nn3)CCCCC(=O)OC[C@@H](O2)[C@@H](OC(=O)c2ccccc2)[C@@H]1OC(=O)c1ccccc1", "note": "[11a -> 13a (LM24)]", "values": [{"measurement": "ring closure, isolated yield", "setting": "[1]; from CC(=O)N[C@H]1[C@@H](OCCn2cc(CCCCC(=O)O)nn2)O[C@H](COS(=O)(=O)c2ccc(C)cc2)[C@@H](OC(=O)c2ccccc2)[C@@H]1OC(=O)c1ccccc1, 16-membered ring, 2.0 h", "result": 88, "unit": "%"}]}, {"smiles": "CO[C@H]1O[C@@H]2COC(=O)CCn3cc(nn3)CCCCc3cn(nn3)CC(=O)N[C@@H]1[C@@H](OC(=O)c1ccccc1)[C@@H]2OC(=O)c1ccccc1", "note": "[23 -> 24 (C2DLM)]", "values": [{"measurement": "ring closure, isolated yield", "setting": "[1]; from CO[C@H]1O[C@H](COS(=O)(=O)c2ccc(C)cc2)[C@@H](OC(=O)c2ccccc2)[C@H](OC(=O)c2ccccc2)[C@H]1NC(=O)Cn1cc(CCCCc2cn(CCC(=O)O)nn2)nn1, 22-membered ring, 2.0 h", "result": 77, "unit": "%"}]}, {"smiles": "CC(=O)N[C@H]1[C@H]2OCCn3cc(nn3)CCCCCCCCC(=O)OC[C@@H](O2)[C@@H](OC(=O)c2ccccc2)[C@@H]1OC(=O)c1ccccc1", "note": "[8c -> LM28 (13c)]", "values": [{"measurement": "ring closure, isolated yield", "setting": "[2]; from CC(=O)N[C@H]1[C@@H](OCCn2cc(CCCCCCCCC(=O)O)nn2)O[C@H](COS(=O)(=O)c2ccc(C)cc2)[C@@H](OC(=O)c2ccccc2)[C@@H]1OC(=O)c1ccccc1, 20-membered ring, 6.0 h", "result": 77, "unit": "%"}]}, {"smiles": "CO[C@H]1O[C@@H]2COC(=O)CCCCCCCCc3cn(nn3)CC(=O)N[C@@H]1[C@@H](OC(=O)c1ccccc1)[C@@H]2OC(=O)c1ccccc1", "note": "[21 -> 22 (C2ML)]", "values": [{"measurement": "ring closure, isolated yield", "setting": "[1]; from CO[C@H]1O[C@H](COS(=O)(=O)c2ccc(C)cc2)[C@@H](OC(=O)c2ccccc2)[C@H](OC(=O)c2ccccc2)[C@H]1NC(=O)Cn1cc(CCCCCCCCC(=O)O)nn1, 21-membered ring, 2.0 h", "result": 80, "unit": "%"}]}, {"smiles": "CC(=O)N[C@H]1[C@H]2OCCCn3cc(nn3)CCCCCc3cn(nn3)CCC(=O)OC[C@@H](O2)[C@@H](OC(=O)c2ccccc2)[C@@H]1OC(=O)c1ccccc1", "note": "[15d -> 16d (DM35)]", "values": [{"measurement": "ring closure, isolated yield", "setting": "[1]; from CC(=O)N[C@H]1[C@@H](OCCCn2cc(CCCCCc3cn(CCC(=O)O)nn3)nn2)O[C@H](COS(=O)(=O)c2ccc(C)cc2)[C@@H](OC(=O)c2ccccc2)[C@@H]1OC(=O)c1ccccc1, 23-membered ring, 3.0 h", "result": 78, "unit": "%"}, {"measurement": "ring closure, isolated yield", "setting": "[2]; from CC(=O)N[C@H]1[C@@H](OCCCn2cc(CCCCCc3cn(CCC(=O)O)nn3)nn2)O[C@H](COS(=O)(=O)c2ccc(C)cc2)[C@@H](OC(=O)c2ccccc2)[C@@H]1OC(=O)c1ccccc1, 23-membered ring, 15.0 h", "result": 74, "unit": "%"}]}, {"smiles": "CC(=O)N[C@H]1[C@H]2OCCCn3cc(nn3)CCCCC(=O)OC[C@@H](O2)[C@@H](OC(=O)c2ccccc2)[C@@H]1OC(=O)c1ccccc1", "note": "[12a -> 14a (LM34)]", "values": [{"measurement": "ring closure, isolated yield", "setting": "[1]; from CC(=O)N[C@H]1[C@@H](OCCCn2cc(CCCCC(=O)O)nn2)O[C@H](COS(=O)(=O)c2ccc(C)cc2)[C@@H](OC(=O)c2ccccc2)[C@@H]1OC(=O)c1ccccc1, 17-membered ring, 2.0 h", "result": 88, "unit": "%"}]}, {"smiles": "CC(=O)N[C@H]1[C@H]2OCCn3cc(nn3)CCCCCCCCC(=O)OC[C@@H](O2)[C@@H](OC(=O)c2ccccc2)[C@@H]1OC(=O)c1ccccc1", "note": "[8c -> 13c (LM28), OTs]", "values": [{"measurement": "ring closure, isolated yield", "setting": "[1]; from CC(=O)N[C@H]1[C@@H](OCCn2cc(CCCCCCCCC(=O)O)nn2)O[C@H](COS(=O)(=O)c2ccc(C)cc2)[C@@H](OC(=O)c2ccccc2)[C@@H]1OC(=O)c1ccccc1, 20-membered ring, 3.0 h", "result": 82, "unit": "%"}]}, {"smiles": "CC(=O)N[C@H]1[C@H]2OCCn3cc(nn3)CCCCc3cn(nn3)CCC(=O)OC[C@@H](O2)[C@@H](OC(=O)c2ccccc2)[C@@H]1OC(=O)c1ccccc1", "note": "[15a -> 16a (DM24)]", "values": [{"measurement": "ring closure, isolated yield", "setting": "[1]; from CC(=O)N[C@H]1[C@@H](OCCn2cc(CCCCc3cn(CCC(=O)O)nn3)nn2)O[C@H](COS(=O)(=O)c2ccc(C)cc2)[C@@H](OC(=O)c2ccccc2)[C@@H]1OC(=O)c1ccccc1, 21-membered ring, 4.0 h", "result": 90, "unit": "%"}, {"measurement": "ring closure, isolated yield", "setting": "[2]; from CC(=O)N[C@H]1[C@@H](OCCn2cc(CCCCc3cn(CCC(=O)O)nn3)nn2)O[C@H](COS(=O)(=O)c2ccc(C)cc2)[C@@H](OC(=O)c2ccccc2)[C@@H]1OC(=O)c1ccccc1, 21-membered ring, 11.0 h", "result": 77, "unit": "%"}]}, {"smiles": "CC(=O)N[C@H]1[C@H]2OCCCn3cc(nn3)CCCCc3cn(nn3)CCC(=O)OC[C@@H](O2)[C@@H](OC(=O)c2ccccc2)[C@@H]1OC(=O)c1ccccc1", "note": "[15c -> 16c (DM34)]", "values": [{"measurement": "ring closure, isolated yield", "setting": "[1]; from CC(=O)N[C@H]1[C@@H](OCCCn2cc(CCCCc3cn(CCC(=O)O)nn3)nn2)O[C@H](COS(=O)(=O)c2ccc(C)cc2)[C@@H](OC(=O)c2ccccc2)[C@@H]1OC(=O)c1ccccc1, 22-membered ring, 2.0 h", "result": 85, "unit": "%"}, {"measurement": "ring closure, isolated yield", "setting": "[2]; from CC(=O)N[C@H]1[C@@H](OCCCn2cc(CCCCc3cn(CCC(=O)O)nn3)nn2)O[C@H](COS(=O)(=O)c2ccc(C)cc2)[C@@H](OC(=O)c2ccccc2)[C@@H]1OC(=O)c1ccccc1, 22-membered ring, 14.0 h", "result": 78, "unit": "%"}]}]}
